{"source": "patent EP1214933A1", "about": "“METHOD FOR MODULATING THE METABOLISM OF NITROGEN OXIDES, COMPOSITIONS THEREFOR (AND VARIANTS) AND METHOD FOR ACTING ON A PATIENT'S ORGANISM NECESSITATING THE METABOLISM OF NITROGEN OXIDES TO BE CORRECTED” (Institut Molekulyarnoi Genetiki Rossiiskoi Akademii Nauk ( …, priority 1999, dated 2001)", "key": {"NO oxidation in blood": {"system": "NO oxidation in blood", "experiment": "In vivo micellar NO oxidation catalysis: arterial pressure and plasma nitrite/nitrate", "parameters": "species or system male rats of Wistar normotensive line", "conditions": "for nitrate increased by / nitrite level increased by: plasma, following NaNO2 injection", "procedure": "The experiment was performed on male rats of Wistar normotensive line weighing 180-400 grams. Polyethylene catheters were implanted to animals under Ketamine anesthesia (5mg/100g intraperitoneally) 24 hours prior to the experiment. The femoral artery was catheterized for connecting to arterial blood pressure (AP) transducer and the femoral vein was catheterized for intravenous administering medicinal preparations. AP and heart rate (HR) were measured in the abdominal aorta using a pressure transducer connected to a computer through an amplifier and a digital converter. The animals were divided into groups each consisting of a control and a test subgroups. […] Monitoring AP and HR was continued for 1.5 hours after administering the solutions. Following recording initial AP level group one (group L-NAME) was intraperitonelly administered an inhibitor of NO-synthases N^ω-nitro-L-arginine methyl ester (50 mg/kg) and in 1.5 hours when AP stabilized at a steady level NaNO2 (1 mg/kg) was administered. After a steady lowering AP the animals were administered Perftoran or KH. Group two of rats (group FC) was administered Perftoran or KH immediately after recording initial AP level. Group three (group FCTh) was first administered 200 mg/kg α-lipoic acid and in 15 minutes it was administered Perftoran (or KH). Before commencement of each experiment, after AP got stabilized at a steady level while administering L-NAME and NaNO2 and also immediately following completion of monitoring 0.2 ml blood were taken in each experiment from the arterial catheter for analysis."}, "[1]": {"experiment": "Efficacy of renitrosation catalysts by N1-nitrozotriptophan denitrosation kinetics", "assay_type": "biochemical", "conditions": "32°C, normalized for the buffer molarity", "procedure": "The efficacy of renitrosation catalysts was determined by N^1-nitrozotriptophan (NOW) denitrosation kinetics in the composition of an acylic derivative or serum albumin at 32°C and at different pH values by absorption decrease at λ = 340 nm or by differential spectroscopy relative to denitrosation reaction in a buffer solution, in relation to nitrite/nitrate ratio or by the ratio analysis of nitrosation products. Examples 7-17 illustrate catalytic and inhibitory activity of W^0/W^0buffer compounds used in the claimed compositions (normalized for the buffer molarity)."}, "[2]": {"conditions": "reference buffer Phosphate, pH 6.3"}, "[3]": {"conditions": "group L-NAME, experimental animals"}}}
{"molecule": "O=C(O)CCCCC1CCSS1", "note": "(stereo not drawn) [α-lipoic acid]", "values": [{"measurement": "MAP change", "setting": "NO oxidation in blood; FCTh group, both subgroups, α-lipoic acid 200 mg/kg", "value": "insignificant lowering MAP"}]}
{"molecule": "O=P([O-])([O-])OP(=O)([O-])OP(=O)([O-])[O-].[Na+].[Na+].[Na+].[Na+].[Na+]", "note": "[Example 7, Na5P3O10]", "values": [{"measurement": "W^0/W^0 buffer", "setting": "[1]; [2]", "value": 4}]}
{"molecule": "Na2MnATP [Example 8]", "values": [{"measurement": "W^0/W^0 buffer", "setting": "[1]; [2]", "value": 0.7}]}
{"molecule": "O=C1O[C@H]([C@@H](O)CO)C(O)=C1O", "note": "[Example 17, Ascorbic acid]", "values": [{"measurement": "W^0/W^0 buffer", "setting": "[1]; reference buffer Phosphate, pH 5.9", "value": 32}]}
{"molecule": "COC(=O)[C@@H](N)CCCNC(=N)N[N+](=O)[O-]", "note": "[L-NAME, N^ω-nitro-L-arginine methyl ester]", "values": [{"measurement": "Plasma levels of nitrites and nitrates", "setting": "NO oxidation in blood; group L-NAME, after NOS inhibitor administration", "value": "insignificant lowering"}, {"measurement": "mean arterial blood pressure (MAP) raised by", "setting": "NO oxidation in blood; group L-NAME, both subgroups, following L-NAME 50 mg/kg intraperitoneally", "value": "38±5", "unit": "mm Hg"}]}
{"molecule": "O=P([O-])([O-])OP(=O)([O-])OP(=O)([O-])[O-].[Mg+2].[Na+].[Na+].[Na+]", "note": "[Example 10, Na3MgP3O10]", "values": [{"measurement": "W^0/W^0 buffer", "setting": "[1]; [2]", "value": 11}]}
{"molecule": "O=N[O-].[Na+]", "note": "[NaNO2]", "values": [{"measurement": "lowering MAP by", "setting": "NO oxidation in blood; group L-NAME, both subgroups, NaNO2 1 mg/kg after L-NAME", "value": "25±4", "unit": "mm Hg"}, {"measurement": "nitrate increased by", "setting": "NO oxidation in blood; group L-NAME, controls", "value": "76 ± 26", "unit": "µM"}, {"measurement": "nitrite level increased by", "setting": "NO oxidation in blood; group L-NAME, controls", "value": "362 ± 73", "unit": "µM"}, {"measurement": "nitrate increased by", "setting": "NO oxidation in blood; [3]", "value": "87 ± 15", "unit": "µM"}, {"measurement": "nitrite level increased by", "setting": "NO oxidation in blood; [3]", "value": "344 ± 68", "unit": "µM"}]}
{"molecule": "NC(N)=NCCCC(N)C(=O)O", "note": "[Example 13, D-Arg]", "values": [{"measurement": "W^0/W^0 buffer", "setting": "[1]; reference buffer MOPS, pH 6", "value": 0.56}]}
{"molecule": "O=P([O-])([O-])OP(=O)([O-])OP(=O)([O-])[O-].[Mn+2].[Na+].[Na+].[Na+]", "note": "[Example 9, Na3MnP3O10]", "values": [{"measurement": "W^0/W^0 buffer", "setting": "[1]; [2]", "value": 21}]}
